In PubChem BioAssay (NCI) one finds TGI data, which are given here for 48 compounds.

Holding throughout (assay): NCI anticancer screen, dose series, 48 h
Test [1] concerns U251 CNS.
Test [2] has as its system MDA-MB-435.
The test system of test [3] is HS 578T breast.
The test system of test [4] is COLO 205 colon.
Test [5] deals with PC-3 prostate.

Structures are written as SMILES.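 Cells were grown in 96-well plates and exposed to each compound for 48 hours at five concentrations; endpoints were interpolated linearly between bracketing concentrations, or set to the highest concentration if not reached. TGI: total growth inhibition.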 Where a SMILES comes first, the peptide text is derived from it.

Regarding `CCOC(=O)COC1=Nc2cc(OC)c(OC)c3nc(Cl)cc(c23)C1=O`, the TGI in test [1] was 8.49 µM; in test [2] it was 2.93 µM; in test [3], more than 20.6 µM; in test [4], 3.88 µM; in test [5], 3.45 µM.

For `NC(=O)CC[C@H]1C(=O)N=C(N)N1C(=O)OCc1ccccc1`, the TGI in test [1], in test [2], in test [3], in test [4] and in test [5] was more than 100 µM in each case.

Consider `COC(C[C@H]1CCCC[C@]1(O)/C(=C\CO[Si](C(C)C)(C(C)C)C(C)C)Sc1ccccc1)OC`, for which the TGI in test [1] is 51.8 µM; in test [2], more than 100 µM; in test [3], more than 100 µM; in test [4], 47.4 µM; in test [5] it was more than 100 µM.

For `COc1ccc(C(=O)/C=C/c2ccc(OCCCOc3ccc(/C=C/C(=O)c4ccc(OC)c(OC)c4)cc3)cc2)cc1OC`, the TGI in test [1], in test [2], in test [3], in test [4] and in test [5] was more than 100 µM throughout.

Regarding `CN1CCCC(OC(=O)c2cc3cc(CCl)ccc3oc2=O)C1` (stereo unspecified), the TGI in test [1] was 30.1 µM; in test [2], 41.6 µM; in test [3], 56.6 µM; in test [4] it was 35.7 µM; in test [5], 41.3 µM.

Regarding `Nc1cc2ncnc(Nc3cccc(Br)c3)c2cn1`, the TGI in test [1], in test [2], in test [3], in test [4] and in test [5] was more than 100 µM in each case.

Consider `CC(=O)c1cc(S(=O)(=O)c2ccc(O)c(C(C)=O)c2)ccc1O`, for which the TGI in test [1], in test [2], in test [4] and in test [5] was more than 100 µM in each case.

On to `COc1ccc(Nc2nc(NNC(=O)Cc3ccccc3)nc(NNC(=O)c3ccncc3)n2)cc1`, for which the TGI in test [1], in test [2] and in test [4] was more than 10 µM in each case.

For `Oc1ccc(O)c(Sc2nnc(CCCCCCCCc3nnc(Sc4cc(O)ccc4O)o3)o2)c1`, the TGI is more than 100 µM in test [1], 35.8 µM in test [2], more than 100 µM in test [4] and more than 100 µM in test [5].

As for `COc1ccc(/C=N/N=C(\N)NO)c(OC)c1OC`, the TGI in test [1], in test [2], in test [3], in test [4] and in test [5] was more than 100 µM throughout.

In the case of `CCOC(=O)c1c(SCCN2CCCCC2)n(-c2ccccc2)c(=S)n(-c2ccccc2)c1=O`, the TGI in test [1] is more than 68.2 µM; in test [2], 31.5 µM; in test [3], 80.1 µM; in test [4], 19.9 µM; in test [5], 27.7 µM.

Take `CCCCNC(=S)Nc1nc(C(=O)NNC(=S)NCc2ccccc2)cs1`: the TGI in test [1], in test [2], in test [4] and in test [5] was more than 100 µM each time.

On to `O=C1/C(=C(/Br)I)c2ccccc2-c2ccccc21`, for which the TGI in test [1] is 25.5 µM; in test [2] it was 22 µM; in test [3], more than 100 µM; in test [4], 4.22 µM; in test [5], 23.7 µM.

`O=C(O)Cn1ncn(NC(=O)Cc2ccccc2)c1=S`: the TGI in test [1], in test [2], in test [3], in test [4] and in test [5] was more than 10 µM each time.

Turning to `C/C(=C\COP(=O)(O)OP(=O)(O)O)CC/C=C(\C)CNc1ccccc1`, the TGI in test [1], in test [2], in test [3], in test [4] and in test [5] was more than 50 µM throughout.

Turning to `CN1C(=O)C(CCO)(C(C)(C)C)c2ccccc21` (stereo unspecified), the TGI in test [1], in test [2], in test [3], in test [4] and in test [5] was more than 100 µM in each case.

As to `C=C1CN=C(Nc2ccc(F)cc2F)S1`, the TGI in test [1], in test [3], in test [4] and in test [5] was more than 100 µM throughout.

As to `CC(=O)NC1C(OCc2ccccc2)OC(CO)C(O)C1OCC(=O)N[C@@H](C)C(=O)N[C@H](CCC(=O)NCCCCNc1c2ccccc2nc2cccc([N+](=O)[O-])c12)C(N)=O` (stereo partly specified), the TGI in test [1] was 10.9 µM; in test [2], 3.96 µM; in test [3], more than 31.3 µM; in test [4], 3.33 µM; in test [5] it was 9.44 µM.

For `COc1cccc(OC/C(N=Cc2ccncc2)=N/NC(=O)c2ccncc2)c1`, the TGI in test [1], in test [2], in test [3], in test [4] and in test [5] was more than 100 µM throughout.

For the compound `O=c1[nH]nc(N/N=C\c2ccc(Cl)cc2)c2ccccc12`, the TGI was 38.2 µM in test [1]; 32.4 µM in test [2]; 62.7 µM in test [3]; 45.9 µM in test [4]; 40.2 µM in test [5].

Take `CCC1(O)CC(O)c2c(O)c3c(c(O)c2C1C(=O)OC)C(=O)c1cccc(O)c1C3=O` (stereo unspecified): the TGI in test [1] is 16.6 µM; in test [2], more than 100 µM; in test [3], 24.5 µM; in test [4], 7.65 µM; in test [5], 13 µM.

For the compound `Cc1c(Cl)c(=O)oc2cc(OCC(O)COC(C)C)ccc12` (stereo unspecified), the TGI in test [1] is more than 100 µM; in test [2] it was more than 100 µM; in test [3], more than 100 µM; in test [4] it was 47.8 µM; in test [5], more than 100 µM.

Take `Cc1cc2nc3c(N)nn(CCN(C)C)c3nc2cc1C`: the TGI in test [1], in test [2], in test [3], in test [4] and in test [5] was more than 100 µM throughout.

Consider `Cn1cnc(/C=C/C#N)c1`, for which the TGI in test [1], in test [2], in test [4] and in test [5] was more than 100 µM in each case.

`COC(C/C=C\C=C\CC/C=C/CC(C)/C=C/C(=C\C(=O)O)CC(=O)O)/C(C)=C\C=C(/C)C(=O)O` (stereo unspecified): the TGI in test [1], in test [2], in test [3], in test [4] and in test [5] was more than 100 µM each time.

On to `O=c1cnc2cc3ccccc3cc2[nH]1`, for which the TGI in test [1], in test [2], in test [3], in test [4] and in test [5] was more than 100 µM throughout.

On to `CCOc1ccccc1N=NC1C(=O)N(C(=O)CC(=O)Nc2ccccc2OC)N=C1C` (stereo unspecified), for which the TGI in test [1] was 95.6 µM; in test [2] it was more than 100 µM; in test [3] it was 12.2 µM; in test [4], more than 100 µM; in test [5] it was more than 100 µM.

As for `COc1ccc(OC)c(-c2cn3c(n2)sc2ccccc23)c1`, the TGI in test [1], in test [2], in test [3], in test [4] and in test [5] was more than 100 µM each time.

Regarding `COC(CC1(CCNc2ccccc2)C(=O)N(COCC[Si](C)(C)C)c2ccccc21)OC` (stereo unspecified), the TGI in test [1] was more than 61 µM; in test [2], 38.5 µM; in test [3] it was 41.4 µM; in test [4], 9.09 µM; in test [5] it was 27.8 µM.

`CCC(=O)Nc1ccc(N2C(=O)/C(=C/c3ccc(O)c(OC)c3)N=C2c2ccccc2)cc1`: the TGI in test [2] is more than 100 µM; in test [3] it was more than 100 µM; in test [5] it was 60.8 µM.

For `Cc1sc2nc3n(sc4nc5sc(C)c(C)c5c(=O)n43)c(=O)c2c1C`, the TGI in test [1], in test [2], in test [3], in test [4] and in test [5] was more than 100 µM in each case.

With `CCCCCCCCCCC[N+]1(Cc2ccccc2)CC2CCN(Cc3ccccc3)CC2C1` (stereo unspecified), the TGI in test [1] was determined as 1.11 µM; in test [3] it was 1.57 µM; in test [4], 2.18 µM; in test [5], 1.18 µM.

On to `O=[N+]([O-])c1cccc([N+](=O)[O-])c1Cl`, for which the TGI in test [1] is 25.8 µM; in test [2] it was 35.3 µM; in test [3], 82.3 µM; in test [4] it was 91.2 µM; in test [5], 38.7 µM.

`CC(=O)Nc1nc(C)c(S(=O)(=O)NC(=O)N2c3ccccc3CCc3ccccc32)s1`: the TGI in test [1], in test [2], in test [3], in test [4] and in test [5] was more than 100 µM each time.

In the case of `CCC(C)C(NC(=O)C1CCCN1)C(=O)NC(C(=O)NCC(=O)NC(CC(N)=O)C(=O)NC(CC(C)C)C(=O)NC(CC(C)C)C(=O)NC(CCCCN)C(N)=O)C(C)C` (stereo unspecified) (H-PIVGNLLK-NH2; configuration not given here), the TGI in test [1], in test [2], in test [3], in test [4] and in test [5] was more than 75 µM each time.

Regarding `Cc1ccc(C(=O)NN=C(/N=N/c2cccc(C)c2)c2ccc(N(C)C)cc2)cc1`, the TGI in test [1], in test [2], in test [3], in test [4] and in test [5] was more than 100 µM throughout.

Turning to `CC1Cc2c(cc(N)nc2Br)NC1=O` (stereo unspecified), the TGI in test [1], in test [2], in test [3], in test [4] and in test [5] was more than 100 µM throughout.

In the case of `Cc1cc(C)c(C#N)c(SC(=S)NC(=O)c2ccccc2)n1`, the TGI in test [1], in test [2], in test [3], in test [4] and in test [5] was more than 100 µM throughout.

On to `COC(=O)NC(Nc1ccc(C)cc1)(C(F)(F)F)C(F)(F)F`, for which the TGI in test [1], in test [2], in test [3], in test [4] and in test [5] was more than 100 µM throughout.

As for `Cc1cn([C@@H]2C[C@](C)(CO)N(C)O2)c(=O)[nH]c1=O`, the TGI in test [1], in test [2], in test [3], in test [4] and in test [5] was more than 100 µM throughout.

On to `O=C(c1ccccc1)c1ccc2nc(-c3c(Cl)c(Cl)c(Cl)c(Cl)c3C(=O)Nc3ccco3)[nH]c2c1`, for which the TGI in test [1] is more than 100 µM; in test [2] it was 42.7 µM; in test [4], more than 100 µM; in test [5] it was more than 100 µM.

Regarding `O=C1Sc2cc3ccccc3cc2C(=O)Sc2cc3ccccc3cc21`, the TGI in test [1], in test [2], in test [3], in test [4] and in test [5] was more than 100 µM in each case.

As for `Cc1cn(C2CC(SCCO)C(CO)O2)c(=O)[nH]c1=O` (stereo unspecified), the TGI in test [1], in test [2], in test [4] and in test [5] was more than 100 µM each time.

For the compound `COc1ccc(C[C@H]2COC(=O)[C@@H]2Cc2ccccc2)cc1OC`, the TGI in test [1], in test [3] and in test [5] was more than 100 µM each time.

As for `O=C1/C(=C/c2cccs2)N=C(c2ccccc2)N1c1nc2ccccc2s1`, the TGI is more than 100 µM in test [1], more than 100 µM in test [2], 38.9 µM in test [3] and more than 100 µM in test [5].

On to `S=c1oc(CCCCCCCCc2nn(CNc3ccc(Cl)cc3)c(=S)o2)nn1CNc1ccc(Cl)cc1`, for which the TGI in test [1] was more than 100 µM; in test [2], more than 100 µM; in test [4], 22.2 µM; in test [5], more than 100 µM.

For the compound `CCCCN(CCCC)C1=Nc2ccccc2-n2c(nnc2C(=O)OCC)C1`, the TGI is more than 100 µM in test [2], more than 100 µM in test [3], 36.2 µM in test [4] and 51.6 µM in test [5].

`CC(C)(C)C(=O)O[C@H]1C=C[C@@H](O)[C@@H]2[C@H]1[C@@H]1C=C[C@H]2C1`: the TGI in test [1], in test [3] and in test [4] was more than 100 µM in each case.
